{"source": "patent US6858631B1", "about": "“Polymorphic, amorphous and hydrated forms of 5-chloro-3-(4-methanesulfonylphenyl)-6′-methyl-[2,3′]bipyridinyl” (Merck & Co., Inc., priority 1999, dated 2005)", "key": {"[1]": {"experiment": "Relative thermodynamic stability and interconversion of polymorphic forms", "format": "physicochemical", "description": "(§1) Forms I and IV are enantiotropic with Form IV converting to Form I at temperatures greater than 45° C. when in contact with organic solvents."}, "[2]": {"experiment": "Relative solubility of polymorphic forms", "format": "physicochemical", "settings": "at temperatures below 45° C.", "description": "as §1"}}}
{"smiles": "Cc1ccc(-c2ncc(Cl)cc2-c2ccc(S(C)(=O)=O)cc2)cn1", "note": "[Form IV, 5-chloro-3-(4-methanesulfonylphenyl)-6′-methyl-[2,3′]bipyridinyl]", "values": [{"measurement": "stability relative to Form I", "setting": "[1]; at temperatures below 45° C.", "result": "slightly more stable"}, {"measurement": "temperature at which Form IV converts to Form I (enantiotropic)", "setting": "[1]; in contact with organic solvents", "result": "greater than 45 °C"}, {"measurement": "solubility relative to Form I", "setting": "[2]", "result": "slightly less soluble"}]}
